{"source": "patent US20260248165A1", "about": "“A SWEETENER OR SWEETNESS ENHANCER COMPOSITION” (Analyticon Discovery – Zweigniederlassung der BRAIN Biotech …, priority 2022, published 2026)", "key": {"[1]": {"experiment": "Organoleptic test of the compounds against sucrose (intrinsic sweetness)", "type": "in vivo", "design": "key: 3: sweeter than the control solution; 2: sweetness comparable with the control solution; 1: less sweet than the control solution but still sweet; 0: no intrinsic sweetness", "details": "3-4 panelists; for Sweetness 50 ppm: compound 50 ppm in mineral water vs sucrose 20 g/l; for Sweetness 200 ppm: compound 200 ppm in mineral water vs sucrose 20 g/l", "experimental": "The isolated pure compounds were dissolved in non-carbonated mineral water (“Evian”) in a concentration of 0.2 mg/ml (200 ppm) and 0.05 mg/ml (50 ppm). The sweet taste of each sample was compared by a panel of 3-4 panelists with a solution of sucrose in a concentration of 20 g/l."}, "[2]": {"experiment": "Organoleptic test in combination with sucrose against sucrose (sucrose enhancement), 2-AFC", "type": "in vivo", "design": "key: 3: sweeter than the control solution; 2: sweetness comparable with the control solution; 1: less sweet than the control solution but still sweet; 0: no intrinsic sweetness", "details": "12 to 15 panelists; for Sweet taste enhancement of sucrose, control solution Sucrose 6%: compound 50 ppm in 6% sucrose solution vs 6% sucrose; for Sweet taste enhancement of sucrose, control solution Sucrose 7%: compound 50 ppm in 6% sucrose solution vs 7% sucrose; for Sweet taste enhancement of sucrose, control solution Sucrose 8%: compound 50 ppm in 6% sucrose solution vs 8% sucrose; for Sweet taste enhancement of sucrose, control solution Sucrose 9%: compound 50 ppm in 6% sucrose solution vs 9% sucrose", "experimental": "The isolated pure compounds were dissolved in non-carbonated mineral water (“Evian”) in a concentration of 50 ppm (0.05 mg/ml), 25 ppm (0.025 mg/ml), […] (0.0125 mg/ml) and […] (0.00625 mg/ml). The sweet taste of each sample was detected by a panel of 4 panelists to detect the sweetness perception level. The highest concentration below the sweetness perception level was used for the evaluation of the sweet taste enhancement of sucrose.\nA solution of the isolated compound in a concentration below the sweetness perception level was dissolved in 6% sucrose solution. The sweet taste of this sample was compared to the sweet taste of a 6% sucrose solution by a panel of 12 to 15 panelists in a two-alternative forced-choice test (2-AFC. E2164-16_Standard Test Method for Directional Difference Test). The panelists were trained to differentiate between the sweetness of a 6%, 7%, 8%, and 9% sucrose solution. The sweetness of the solution of the enhancer in 6% sucrose was compared with sucrose solutions in concentrations of 6%, 7%, 8%, and 9%."}, "[3]": {"experiment": "Organoleptic test in combination with Rebaudioside M against Rebaudioside M (Rebaudioside M enhancement), 2-AFC", "type": "in vivo", "design": "key: 3: sweeter than the control solution; 2: sweetness comparable with the control solution; 1: less sweet than the control solution but still sweet; 0: no intrinsic sweetness", "details": "12 to 15 panelists; for Sweet taste enhancement, control solution Reb M 150 ppm: compound in 150 ppm Rebaudioside M solution vs Reb M 150 ppm; for Sweet taste enhancement, control solution Reb M 170 ppm: compound in 150 ppm Rebaudioside M solution vs Reb M 170 ppm; for Sweet taste enhancement, control solution Reb M 190 ppm: compound in 150 ppm Rebaudioside M solution vs Reb M 190 ppm; for Sweet taste enhancement, control solution Reb M 210 ppm: compound in 150 ppm Rebaudioside M solution vs Reb M 210 ppm", "experimental": "The isolated pure compounds were dissolved in non-carbonated mineral water (“Evian”) in a concentration of 50 ppm (0.05 mg/ml), 25 ppm (0.025 mg/ml), […] (0.0125 mg/ml) and […]. The sweet taste of each sample was detected by a panel of 3-4 panelists to detect the sweetness perception level. The highest concentration below the sweetness perception level was used for the evaluation of the sweet taste enhancement of Rebaudioside M.\nA solution of the isolated compound in a concentration below the sweetness perception level was dissolved in 150 ppm Rebaudioside M solution. […] E2164-16_Standard Test Method for Directional Difference Test). The panelists were trained to differentiate between the sweetness of a 150 ppm, 170 ppm, 190 ppm, and a 210 ppm Rebaudioside M solution."}, "[4]": {"experiment": "Organoleptic comparison of Compound 1 with Millettiasaponin A", "type": "in vivo", "details": "both at 200 ppm and 50 ppm in mineral water; 4 panelists", "experimental": "Milettiasaponin A was published as sweet taste principle of an extract prepared from Derris eriocarpa (150× sweeter than sucrose) [J. Agric. Food Chem. 2017, 65, 2357-2363]. Milletiasaponin A has an additional hydroxyl group at C-24 compared to compound 1. Both compounds were dissolved in non-carbonated mineral water (“Evian”) in a concentration of 0.2 mg/ml (200 ppm) and 0.05 mg/ml (50 ppm). The sweet taste of both samples was compared by a panel of 4 panelists."}, "[5]": {"details": "J. Agric. Food Chem. 2017, 65, 2357-2363; cited from earlier work"}, "[6]": {"details": "5% sucrose in water; concentration of 100 μm; cited from earlier work"}}, "data": [{"smiles": "CCCCCc1cc2cc(O)cc(Oc3c(O)cc(O)cc3CCCCC)c2c(=O)o1", "note": "[Compound 4, Physodone]", "values": [{"measurement": "Sweetness 50 ppm", "setting": "[1]", "result": 0}, {"measurement": "Sweetness 200 ppm", "setting": "[1]", "result": 0}, {"measurement": "Sweet taste enhancement of sucrose, control solution Sucrose 6%", "setting": "[2]", "result": 3}, {"measurement": "Sweet taste enhancement of sucrose, control solution Sucrose 7%", "setting": "[2]", "result": 3}, {"measurement": "Sweet taste enhancement of sucrose, control solution Sucrose 8%", "setting": "[2]", "result": 3}, {"measurement": "Sweet taste enhancement of sucrose, control solution Sucrose 9%", "setting": "[2]", "result": 2}, {"measurement": "Sweet taste enhancement, control solution Reb M 150 ppm", "setting": "[3]", "result": 3}, {"measurement": "Sweet taste enhancement, control solution Reb M 170 ppm", "setting": "[3]", "result": 3}, {"measurement": "Sweet taste enhancement, control solution Reb M 190 ppm", "setting": "[3]", "result": 3}, {"measurement": "Sweet taste enhancement, control solution Reb M 210 ppm", "setting": "[3]", "result": 1}]}, {"smiles": "CC1=C(C(=O)O[C@@H]2O[C@H](CO[C@@H]3OC[C@@H](O)[C@H](O)[C@H]3O)[C@@H](O)[C@H](O)[C@H]2O)C(C)(C)CCC1", "note": "[Compound 2, Jasminoside M]", "values": [{"measurement": "Sweetness 50 ppm", "setting": "[1]", "result": 0}, {"measurement": "Sweetness 200 ppm", "setting": "[1]", "result": 0}, {"measurement": "Sweet taste enhancement of sucrose, control solution Sucrose 6%", "setting": "[2]", "result": 3}, {"measurement": "Sweet taste enhancement of sucrose, control solution Sucrose 7%", "setting": "[2]", "result": 3}, {"measurement": "Sweet taste enhancement of sucrose, control solution Sucrose 8%", "setting": "[2]", "result": 3}, {"measurement": "Sweet taste enhancement of sucrose, control solution Sucrose 9%", "setting": "[2]", "result": 2}, {"measurement": "Sweet taste enhancement, control solution Reb M 150 ppm", "setting": "[3]", "result": 3}, {"measurement": "Sweet taste enhancement, control solution Reb M 170 ppm", "setting": "[3]", "result": 3}, {"measurement": "Sweet taste enhancement, control solution Reb M 190 ppm", "setting": "[3]", "result": 2}, {"measurement": "Sweet taste enhancement, control solution Reb M 210 ppm", "setting": "[3]", "result": 1}]}, {"smiles": "COc1cc([C@H]2c3cc(O)c(OC)cc3C[C@@H](CO[C@@H]3O[C@H](CO)[C@@H](O)[C@H](O)[C@H]3O)[C@@H]2CO)ccc1O", "note": "[Compound 3, Isolariciresinol 9-glucoside]", "values": [{"measurement": "Sweetness 50 ppm", "setting": "[1]", "result": 0}, {"measurement": "Sweetness 200 ppm", "setting": "[1]", "result": 0}, {"measurement": "Sweet taste enhancement of sucrose, control solution Sucrose 6%", "setting": "[2]", "result": 3}, {"measurement": "Sweet taste enhancement of sucrose, control solution Sucrose 7%", "setting": "[2]", "result": 3}, {"measurement": "Sweet taste enhancement of sucrose, control solution Sucrose 8%", "setting": "[2]", "result": 3}, {"measurement": "Sweet taste enhancement of sucrose, control solution Sucrose 9%", "setting": "[2]", "result": 2}, {"measurement": "Sweet taste enhancement, control solution Reb M 150 ppm", "setting": "[3]", "result": 3}, {"measurement": "Sweet taste enhancement, control solution Reb M 170 ppm", "setting": "[3]", "result": 3}, {"measurement": "Sweet taste enhancement, control solution Reb M 190 ppm", "setting": "[3]", "result": 2}, {"measurement": "Sweet taste enhancement, control solution Reb M 210 ppm", "setting": "[3]", "result": 1}]}, {"smiles": "CC(=O)O[C@@H]1C[C@](C)(C(=O)O)C[C@H]2C3=CCC4[C@@]5(C)CC[C@H](O[C@@H]6O[C@H](C(=O)O)[C@@H](O)[C@H](O)[C@H]6O[C@@H]6O[C@H](CO)[C@H](O)[C@H](O)[C@H]6O[C@@H]6O[C@@H](C)[C@H](O)[C@@H](O)[C@H]6O)C(C)(C)C5CC[C@@]4(C)[C@]3(C)CC[C@@]12C", "note": "(stereo partly shown) [Compound 1, 24-Desoxy- Millettiasaponin A]", "values": [{"measurement": "Sweetness 50 ppm", "setting": "[1]", "result": 3}, {"measurement": "Sweetness 200 ppm", "setting": "[1]", "result": 3}, {"measurement": "Sweet taste compared with Milletiasaponin A", "setting": "[4]", "result": "sweeter with less aftertaste than Milletiasaponin A"}, {"measurement": "Sweet taste enhancement of sucrose, control solution Sucrose 6%", "setting": "[2]", "result": 3}, {"measurement": "Sweet taste enhancement of sucrose, control solution Sucrose 7%", "setting": "[2]", "result": 3}, {"measurement": "Sweet taste enhancement of sucrose, control solution Sucrose 8%", "setting": "[2]", "result": 3}, {"measurement": "Sweet taste enhancement of sucrose, control solution Sucrose 9%", "setting": "[2]", "result": 3}, {"measurement": "Sweet taste enhancement, control solution Reb M 150 ppm", "setting": "[3]", "result": 3}, {"measurement": "Sweet taste enhancement, control solution Reb M 170 ppm", "setting": "[3]", "result": 3}, {"measurement": "Sweet taste enhancement, control solution Reb M 190 ppm", "setting": "[3]", "result": 2}, {"measurement": "Sweet taste enhancement, control solution Reb M 210 ppm", "setting": "[3]", "result": 2}]}, {"smiles": "CC(=O)O[C@@H]1C[C@](C)(C(=O)O)C[C@H]2C3=CCC4[C@@]5(C)CC[C@H](O[C@@H]6O[C@H](C(=O)O)[C@@H](O)[C@H](O)[C@H]6O[C@@H]6O[C@H](CO)[C@H](O)[C@H](O)[C@H]6O[C@@H]6O[C@@H](C)[C@H](O)[C@@H](O)[C@H]6O)[C@](C)(CO)C5CC[C@@]4(C)[C@]3(C)CC[C@@]12C", "note": "(stereo partly shown) [Milettiasaponin A]", "values": [{"measurement": "Sweetness relative to sucrose", "setting": "[5]", "result": 150, "unit": "× sweeter than sucrose"}]}, {"smiles": "COc1ccc([C@@H]2CC(=O)c3c(O)cc(O)cc3O2)cc1O", "note": "[hesperetin]", "values": [{"measurement": "Enhancement of the sweetness of sucrose", "setting": "[6]", "result": 41, "unit": "%"}]}]}
